Test results: patent publication US20240158446A1, “CYCLIC COMPOUND HAVING SELECTIVE INHIBITORY ACTION ON KRAS OVER HRAS AND NRAS” (CHUGAI SEIYAKU KABUSHIKI KAISHA, priority 2021, published 2024)

Assays:
[1] = target: GDP-bound KRAS wild-type protein (Homo sapiens, UniProt P01116); assay: Binding to KRAS by surface plasmon resonance (SPR), Single Cycle Kinetics; settings: SPR, Single Cycle Kinetics, 1:1 binding model; GDP-bound KRAS wild-type protein; read-out: KRAS KD
[2] = target: GDP-bound NRAS wild-type protein (Homo sapiens, UniProt P01111); assay: Binding to NRAS by surface plasmon resonance (SPR), Single Cycle Kinetics; settings: SPR; GDP-bound NRAS wild-type protein vs GDP-bound KRAS wild-type protein; KD ratio class
[3] = system: human lung cancer strain NCI-H441;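 also: cell proliferation inhibition after four days measured by CellTiter-Glo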
[4] = target: GDP-bound HRAS wild-type protein (Homo sapiens, UniProt P01112); assay: Binding to HRAS by surface plasmon resonance (SPR), Single Cycle Kinetics; settings: SPR; GDP-bound HRAS wild-type protein vs GDP-bound KRAS wild-type protein; KD ratio class
GDP-bound HRAS wild-type protein, sequence (P01112 whole entry): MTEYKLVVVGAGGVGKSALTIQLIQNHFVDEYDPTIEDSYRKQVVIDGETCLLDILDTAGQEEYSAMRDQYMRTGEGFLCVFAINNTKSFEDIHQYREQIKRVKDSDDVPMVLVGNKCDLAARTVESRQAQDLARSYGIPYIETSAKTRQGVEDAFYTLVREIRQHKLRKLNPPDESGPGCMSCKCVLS

GDP-bound KRAS wild-type protein, sequence (P01116 whole entry): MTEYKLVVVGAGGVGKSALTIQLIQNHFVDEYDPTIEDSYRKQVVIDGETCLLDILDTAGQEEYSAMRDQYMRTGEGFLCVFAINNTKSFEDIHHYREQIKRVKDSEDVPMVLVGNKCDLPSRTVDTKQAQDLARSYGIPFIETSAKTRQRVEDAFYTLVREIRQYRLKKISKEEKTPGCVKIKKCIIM
GDP-bound NRAS wild-type protein, sequence (P01111 whole entry): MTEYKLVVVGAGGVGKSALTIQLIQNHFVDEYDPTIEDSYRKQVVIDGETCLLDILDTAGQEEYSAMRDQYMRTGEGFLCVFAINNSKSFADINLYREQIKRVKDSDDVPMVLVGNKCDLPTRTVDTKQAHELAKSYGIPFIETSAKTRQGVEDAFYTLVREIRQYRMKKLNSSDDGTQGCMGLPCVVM

| SMILES | Kd [1] [nM] | NRAS/KRAS (ratio of KD value for NRAS to KD value for KRAS) [2] | IC50 [3] [nM] | HRAS/KRAS (ratio of KD value for HRAS to KD value for KRAS) [4] |
| --- | --- | --- | --- | --- |
| CCCCCC[C@H]1C(=O)N[C@@H]([C@@H](C)CC)C(=O)N(C)CC(=O)N(C)[C@H]2C/C=C\CCN(C2=O)[C@@H](Cc2ccc(C(F)(F)F)cc2)C(=O)N(C)CC(=O)N[C@@H](CCc2cc(F)c(C(F)(F)F)c(F)c2)C(=O)N2C[C@H](OCC)C[C@H]2C(=O)NC2(CCC2)C(=O)N(C)[C@@H](C2CCCC2)C(=O)N(C)[C@H](C(=O)N(C)C)CC(=O)N1C [PP1242, (2S,8S,12R,14S,20S,23S,27S,30S,36S,38Z)-20-cyclopentyl-8-[2-[3,5-difluoro-4-(trifluoromethyl)phenyl]ethyl]-12-ethoxy-27-hexyl-N,N,4,19,22,26,32,35-octamethyl-30-[(1S)-1-methylpropyl]-3,6,9,15,18,21,25,28,31,34,42-undecaoxo-2-[[4-(trifluoromethyl)phenyl]methyl]spiro[1,4,7,10,16,19,22,26,29,32,35-undecazatricyclo[34.5.1.0^10,14]dotetracont-38-ene-17,1′-cyclobutane]-23-carboxamide] | 0.076 | A (a compound having 10 or more and less than 20 is denoted as A) | 12.8 | A (a compound having 10 or more and less than 20 is denoted as A) |
| CCO[C@@H]1C[C@H]2C(=O)NC3(CCC3)C(=O)N(C)[C@@H](C3CCCC3)C(=O)N(C)[C@H](C(=O)N(C)C)CC(=O)N(C)[C@@H](CC)C(=O)N[C@@H]([C@@H](C)CC)C(=O)N(C)CC(=O)N(C)[C@H]3C/C=C\CCN(C3=O)[C@@H](Cc3ccc(C(F)(F)F)cc3)C(=O)N(C)CC(=O)N[C@@H](CCc3ccc(C(F)(F)F)c(OC)c3)C(=O)N2C1 [PP1243, (2S,8S,12R,14S,20S,23S,27S,30S,36S,38Z)-20-cyclopentyl-12-ethoxy-27-ethyl-8-[2-[3-methoxy-4-(trifluoromethyl)phenyl]ethyl]-N,N,4,19,22,26,32,35-octamethyl-30-[(1S)-1-methylpropyl]-3,6,9,15,18,21,25,28,31,34,42-undecaoxo-2-[[4-(trifluoromethyl)phenyl]methyl]spiro[1,4,7,10,16,19,22,26,29,32,35-undecazatricyclo[34.5.1.0^10,14]dotetracont-38-ene-17,1′-cyclobutane]-23-carboxamide] | 0.058 | A (a compound having 10 or more and less than 20 is denoted as A) | 13.2 | A (a compound having 10 or more and less than 20 is denoted as A) |
| CCC[C@H]1C(=O)N[C@@H]([C@@H](C)CC)C(=O)N(C)CC(=O)N(C)[C@H]2C/C=C\CCN(C2=O)[C@@H](Cc2ccc(C(F)(F)F)cc2)C(=O)N(C)CC(=O)N[C@@H](CCc2ccc(C(F)(F)F)c(OC)c2)C(=O)N2C[C@H](OCC)C[C@H]2C(=O)NC2(CCC2)C(=O)N(C)[C@@H](C2CCCC2)C(=O)N(C)[C@H](C(=O)N(C)C)CC(=O)N1C [PP1244, (2S,8S,12R,14S,20S,23S,27S,30S,36S,38Z)-20-cyclopentyl-12-ethoxy-8-[2-[3-methoxy-4-(trifluoromethyl)phenyl]ethyl]-N,N,4,19,22,26,32,35-octamethyl-30-[(1S)-1-methylpropyl]-3,6,9,15,18,21,25,28,31,34,42-undecaoxo-27-propyl-2-[[4-(trifluoromethyl)phenyl]methyl]spiro[1,4,7,10,16,19,22,26,29,32,35-undecazatricyclo[34.5.1.0^10,14]dotetracont-38-ene-17,1′-cyclobutane]-23-carboxamide] | 0.061 | A (a compound having 10 or more and less than 20 is denoted as A) | 8.9 | B (a compound having 3 or more and less than 10 is denoted as B) |
| CCO[C@@H]1C[C@H]2C(=O)NC3(CCC3)C(=O)N(C)[C@@H](C3CCCC3)C(=O)N(C)[C@H](C(=O)N(C)C)CC(=O)N(C)[C@@H](CC(C)C)C(=O)N[C@@H]([C@@H](C)CC)C(=O)N(C)CC(=O)N(C)[C@H]3C/C=C\CCN(C3=O)[C@@H](Cc3ccc(C(F)(F)F)cc3)C(=O)N(C)CC(=O)N[C@@H](CCc3ccc(C(F)(F)F)c(OC)c3)C(=O)N2C1 [PP1245, (2S,8S,12R,14S,20S,23S,27S,30S,36S,38Z)-20-cyclopentyl-12-ethoxy-27-isobutyl-8-[2-[3-methoxy-4-(trifluoromethyl)phenyl]ethyl]-N,N,4,19,22,26,32,35-octamethyl-30-[(1S)-1-methylpropyl]-3,6,9,15,18,21,25,28,31,34,42-undecaoxo-2-[[4-(trifluoromethyl)phenyl]methyl]spiro[1,4,7,10,16,19,22,26,29,32,35-undecazatricyclo[34.5.1.0^10,14]dotetracont-38-ene-17,1′-cyclobutane]-23-carboxamide] | 0.06 | A (a compound having 10 or more and less than 20 is denoted as A) | 3.7 | B (a compound having 3 or more and less than 10 is denoted as B) |
| CCCCCC[C@H]1C(=O)N[C@@H]([C@@H](C)CC)C(=O)N(C)CC(=O)N(C)[C@H]2C/C=C\CCN(C2=O)[C@@H](Cc2ccc(C(F)(F)F)cc2)C(=O)N(C)CC(=O)N[C@@H](CCc2ccc(C(F)(F)F)c(OC)c2)C(=O)N2C[C@H](OCC)C[C@H]2C(=O)NC2(CCC2)C(=O)N(C)[C@@H](C2CCCC2)C(=O)N(C)[C@H](C(=O)N(C)C)CC(=O)N1C [PP1246, (2S,8S,12R,14S,20S,23S,27S,30S,36S,38Z)-20-cyclopentyl-12-ethoxy-27-hexyl-8-[2-[3-methoxy-4-(trifluoromethyl)phenyl]ethyl]-N,N,4,19,22,26,32,35-octamethyl-30-[(1S)-1-methylpropyl]-3,6,9,15,18,21,25,28,31,34,42-undecaoxo-2-[[4-(trifluoromethyl)phenyl]methyl]spiro[1,4,7,10,16,19,22,26,29,32,35-undecazatricyclo[34.5.1.0^10,14]dotetracont-38-ene-17,1′-cyclobutane]-23-carboxamide] | 0.081 | A (a compound having 10 or more and less than 20 is denoted as A) | 9 | A (a compound having 10 or more and less than 20 is denoted as A) |
| CCO[C@@H]1C[C@H]2C(=O)NC3(CCC3)C(=O)N(C)[C@@H](C3CCCC3)C(=O)N(C)[C@H](C(=O)N(C)C)CC(=O)N(C)[C@@H](CC3CC3)C(=O)N[C@@H]([C@@H](C)CC)C(=O)N(C)CC(=O)N(C)[C@H]3C/C=C\CCN(C3=O)[C@@H](Cc3ccc(C(F)(F)F)cc3)C(=O)N(C)CC(=O)N[C@@H](CCc3ccc(C(F)(F)F)c(OC)c3)C(=O)N2C1 [PP1247, (2S,8S,12R,14S,20S,23S,27S,30S,36S,38Z)-20-cyclopentyl-27-(cyclopropylmethyl)-12-ethoxy-8-[2-[3-methoxy-4-(trifluoromethyl)phenyl]ethyl]-N,N,4,19,22,26,32,35-octamethyl-30-[(1S)-1-methylpropyl]-3,6,9,15,18,21,25,28,31,34,42-undecaoxo-2-[[4-(trifluoromethyl)phenyl]methyl]spiro[1,4,7,10,16,19,22,26,29,32,35-undecazatricyclo[34.5.1.0^10,14]dotetracont-38-ene-17,1′-cyclobutane]-23-carboxamide] | 0.046 | A (a compound having 10 or more and less than 20 is denoted as A) | 6.4 | A (a compound having 10 or more and less than 20 is denoted as A) |
